Measured values reported in EP0536419B1, “TRICYCLIC TRIAZOLE DERIVATIVES, PRODUCTION AND USE THEREOF” (TORAY INDUSTRIES, INC., priority 1991, dated 1992).
Structures can show the parent of a compound that is named as a salt. Where two headings read alike, the source gives them in different places.

Columns and labels:
rabbit platelets = rabbit platelets (Oryctolagus cuniculus, UniProt G1TEI7); experiment: in vitro platelet agglutination inhibition test (PAF-induced); assay type: cell-based; conditions: rabbit platelet-rich plasma, PAF final concentration 10 ng/ml, 37°C
PAF receptor = molecular target: T1, PAF receptor (Oryctolagus cuniculus, UniProt G1TEI7); experiment: Binding test using [3H]-PAF (PAF receptor binding test); set-up: species or system rabbit; conditions: rabbit platelet membrane fraction, [3H]-PAF 0.4 nM, 25°C, 60 minutes; read-out: Receptor Binding Inhibition IC50 (converted)
T1 construct: Cell membrane fraction of rabbit platelets was prepared; from tissue; host or cells: rabbit platelets (cell membrane fraction)
Procedure: Binding Test Using [^3H]-PAF (PAF receptor binding test)
Cell membrane fraction of rabbit platelets was prepared in accordance with the method by Hwang et al (Biochemistry; 22; 4756, (1983)). In 10 mM Tris buffer containing 0.25% bovine serum albumin, 50 mg of this membrane fraction was suspended and tritium-labelled PAF [^3H]-PAF; 0.4 nM) and a test compound were added thereto. After incubating the resulting mixture at 25°C for 60 minutes, the mixture was subjected to filtration through a filter paper made of glass fibers. The filter paper was washed with cold Tris buffer three times and then transferred to a vial. A scintillator was added thereto and the dose of radioactivity was measured with a liquid scintillation counter. The inhibition rate (binding ability) of the test compound was calculated according to the following equation and IC50 values were determined by interpolation. Inhibition Rate (%) = {1 - [((A - B))/((C - B))]} x 100 [formula] (wherein A represents amount bound in the presence of the compound, B represents amount bound by non-specific binding which is the dose of [^3H]-PAF bound radioactivity in the presence of 1 µM of PAF, and C represents total amount bound which is the dose of [^3H]-PAF bound radioactivity.
As a control agent, WEB2086 (Japanese Laid-open Patent Application (Kokai) No. 65-176591) disclosed as a PAF-antagonist was used.

[1] = read-out: PAF-Induced Platelet Aggregation IC50 (converted)

rabbit platelets, sequence (G1TEI7 1-342): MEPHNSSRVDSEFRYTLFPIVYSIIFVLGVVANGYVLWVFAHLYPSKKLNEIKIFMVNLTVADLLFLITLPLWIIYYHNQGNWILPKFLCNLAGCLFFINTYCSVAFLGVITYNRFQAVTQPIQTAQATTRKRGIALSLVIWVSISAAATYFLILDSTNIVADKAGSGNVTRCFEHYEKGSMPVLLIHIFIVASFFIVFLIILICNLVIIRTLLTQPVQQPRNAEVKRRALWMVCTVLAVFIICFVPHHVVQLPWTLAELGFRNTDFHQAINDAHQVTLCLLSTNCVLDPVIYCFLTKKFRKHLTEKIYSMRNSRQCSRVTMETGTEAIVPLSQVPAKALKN
T1 sequence (G1TEI7 1-342): as above

SMILES	IC50 (rabbit platelets; [1])	IC50 (PAF receptor)	IC50 (rabbit platelets; read-out: PAF-Induced Platelet Aggregation IC50)
COc1ccc2[nH]cc(C3CCN(CCCN4Cc5nnc(C)n5-c5ccccc54)CC3)c2c1 [Compound 54, 4,5-dihydro-1-methyl-5-[3-[4-(5-methoxy-3-indolyl)piperidin-1-yl]propyl] [1,2,4]triazolo[4,3-a]quinoxaline]	–	1.16 µM	–
Cc1nnc2n1-c1ccccc1N(CCCN1CCC(c3c[nH]c4ccc(F)cc34)CC1)C2 [Compound 57, 4,5-dihydro-1-methyl-5-[3-[4-(5-fluoro-3-indolyl)piperidin-1-yl]propyl] [1,2,4]triazolo[4,3-a]quinoxaline]	–	2.7 µM	–
Cc1nnc2n1-c1ccccc1N(CCCN1CCN(C(c3ccccc3)c3ccc(Cl)cc3)CC1)C2 (stereo not shown) [Compound 69, 4,5-dihydro-1-methyl-5-[3-[4-[(4-chlorophenyl)phenylmethyl]piperazin-1-yl]propyl][1,2,4]triazolo[4,3-a]quinoxaline]	–	0.702 µM	–
Cc1nnc2n1-c1ccccc1N(CCCN1CCC(c3c[nH]c4ccc(Br)cc34)CC1)C2 [Compound 56, 4,5-dihydro-1-methyl-5-[3-[4-(5-bromo-3-indolyl)piperidin-1-yl]propyl] [1,2,4]triazolo[4,3-a]quinoxaline]	–	0.95 µM	–
Cc1ccc2[nH]cc(C3CCN(CCCN4Cc5nnc(C)n5-c5ccccc54)CC3)c2c1 [Compound 58, 4,5-dihydro-1-methyl-5-[3-[4-(5-methyl-3-indolyl)piperidin-1-yl]propyl] [1,2,4]triazolo[4,3-a]quinoxaline]	–	0.636 µM	–
Cc1nnc2n1-c1ccc(F)cc1N(CCCN1CCC(c3c[nH]c4ccccc34)CC1)C2 [Compound 66, 7-fluoro-4,5-dihydro-1-methyl-5-[3-[4-(3-indolyl)piperidin-1-yl]propyl][1,2,4]triazolo[4,3-a]quinoxaline]	4.27 µM	–	–
Cc1nnc2n1-c1ccccc1N(CCCN1CCC(C(O)(c3ccccc3)c3ccccc3)CC1)C2 [Compound 74, 4,5-dihydro-1-methyl-5-[3-[4-(hydroxydiphenylmethyl)piperidin-1-yl]propyl][1,2,4]triazolo[4,3-a] quinoxaline tartaric acid salt]	–	0.357 µM	–
Cc1nnc2n1-c1ccccc1N(CCN1CCN(C(c3ccccc3)c3ccccc3)CC1)C2 [Compound 43, 4,5-dihydro-1-methyl-5-[3-[4-(diphenylmethyl)piperazin-1-yl]ethyl][1,2,4]triazolo[4,3-a]quinoxaline fumaric acid salt]	–	6.46 µM	–
Cc1nnc2n1-c1ccccc1N(CCCN1CC=C(c3c[nH]c4ccccc34)CC1)C2 [Compound 63, 4,5-dihydro-1-methyl-5-[3-[1,2,3,6-tetrahydro-4-(3-indolyl)pyridin-1-yl]propyl] [1,2,4]triazolo[4,3-a]quinoxaline]	–	–	10.4 µM
Cc1nnc2n1-c1ccccc1N(CCCN1CCC(c3c[nH]c4ccc(Cl)cc34)CC1)C2 [Compound 55, 4,5-dihydro-1-methyl-5-[3-[4-(5-chloro-3-indolyl)piperidin-1-yl]propyl] [1,2,4]triazolo[4,3-a]quinoxaline]	–	0.803 µM	–
Cc1nnc2n1-c1ccccc1N(CCCN1CCN(C(c3ccccc3)c3ccccc3)CC1)C2 [Compound 44, 4,5-dihydro-1-methyl-5-[3-[4-(diphenylmethyl)piperazin-1-yl]propyl][1,2,4]triazolo[4,3-a]quinoxaline]	–	1.67 µM	–

Now from value to compound, other results behind:

IC50 (rabbit platelets; [1])	IC50 (PAF receptor)	SMILES	IC50 (rabbit platelets; read-out: PAF-Induced Platelet Aggregation IC50)
0.124 µM	0.353 µM	Cc1nnc2n(CCCN3CCC(C(O)(c4ccccc4)c4ccccc4)CC3)c3ccccc3n12 [Compound 198, 3-methyl-9-[3-[4-(hydroxydiphenylmethyl)piperidin-1-yl]propyl]-9H-[1,2,4]triazolo[4,3-a]benzimidazole fumaric acid salt]	–
4.09 µM	1.52 µM	Cc1nnc2n1-c1ccccc1N(CCCN1CCC(C(=O)c3ccccc3)CC1)C2 [Compound 128, 4,5-dihydro-1-methyl-5-[3-(4-benzoylpiperidin-1-yl)propyl] [1,2,4]triazolo[4,3-a]quinoxaline]	–
1.55 µM	5.34 µM	CCc1nnc2n(CCCN3CCC(c4c[nH]c5ccccc45)CC3)c3ccccc3n12 [Compound 193, 3-ethyl-9-[3-[4-(3-indolyl)piperidin-1-yl]propyl]-9H-[1,2,4]triazolo[4,3-a]benzimidazole fumaric acid salt]	–
1.7 µM	0.411 µM	COc1ccccc1C(=C1CCN(CCCN2Cc3nnc(C)n3-c3ccccc32)CC1)c1ccccc1OC [Compound 145, 4,5-dihydro-1-methyl-5-[3-[4-[bis(2-methoxyphenyl)methylene]piperidin-1-yl]propyl] [1,2,4]triazolo[4,3,a]quinoxaline]	–
0.597 µM	0.0541 µM	COc1ccc(C(=C2CCN(CCCN3Cc4nnc(C)n4-c4ccccc43)CC2)c2ccc(OC)cc2)cc1 [Compound 148, 4,5-dihydro-1-methyl-5-[3-[4-[bis(4-methoxyphenyl)methylene]piperidin-1-yl]propyl] [1,2,4]triazolo[4,3,a]quinoxaline]	–
0.12 µM	0.0325 µM	COc1cccc(C(O)(c2ccccc2)C2CCN(CCCN3Cc4nnc(C)n4-c4ccccc43)CC2)c1 (stereo not shown) [Compound 133, 4,5-dihydro-1-methyl-5-[3-[4-[hydroxy(3-methoxyphenyl)phenylmethyl]piperidin-1-yl]propyl] [1,2,4]triazolo[4,3-a]quinoxaline]	–
0.747 µM	0.249 µM	Cc1nnc2n1-c1ccccc1N(CCCN1CCC(=C(c3ccccc3)c3cccs3)CC1)C2 [Compound 164, 4,5-dihydro-1-methyl-5-[3-[4-[phenyl(2-thienyl)methylene]piperidin-1-yl]propyl] [1,2,4]triazolo[4,3,a]quinoxaline]	–
5.15 µM	2.91 µM	Cc1nnc2n(CCCN3CCC(c4c[nH]c5ccccc45)CC3)c3cc(Cl)ccc3n12 [Compound 205, 3-methyl-7-chloro-9-[3-[4-(3-indolyl)piperidin-1-yl]propyl]-9H-[1,2,4]triazolo[4,3-a]benzimidazole]	–
1.35 µM	–	CCc1nnc2n1-c1ccccc1N(CCCN1CCC(=C(c3ccccc3)c3ccccc3)CC1)C2 [Compound 92, 1-ethyl-4,5-dihydro-5-[3-[4-(diphenylmethylene)piperidin-1-yl]propyl][1,2,4]triazolo[4,3-a] quinoxaline]	–
0.173 µM	0.0675 µM	Cc1cccc(C(=C2CCN(CCCN3Cc4nnc(C)n4-c4ccccc43)CC2)c2cccc(C)c2)c1 [Compound 147, 4,5-dihydro-1-methyl-5-[3-[4-[bis(3-tolyl)methylene]piperidin-1-yl]propyl] [1,2,4]triazolo[4,3,a]quinoxaline]	–
0.34 µM	0.34 µM	Cc1nnc2n1-c1ccccc1N(CCCN1CCC(C(O)(c3ccccc3)c3cccs3)CC1)C2 (stereo not shown) [Compound 129]	–
–	7.1 µM	Cc1nnc2n(CCN3CCN(C(c4ccccc4)c4ccccc4)CC3)c3ccccc3n12 [Compound 191, 3-methyl-9-[3-[4-(diphenylmethyl)piperazin-1-yl]ethyl]-9H-[1,2,4]triazolo[4,3-a]benzimidazole fumaric acid salt]	–
–	0.202 µM	Cc1nnc2n1-c1ccccc1N(CCCN1CCC(OC(c3ccccc3)c3ccccc3)CC1)C2 [Compound 76, 4,5-dihydro-1-methyl-5-[3-[4-(diphenylmethoxy)piperidin-1-yl]propyl][1,2,4]triazolo[4,3-a] quinoxaline tartaric acid salt]	–
